Values quoted from earlier work in patent US20090023773A1, “COMPOSITIONS AND METHODS FOR MODULATING GATED ION CHANNELS” (PainCeptor Pharma Corporation, priority 2007, published 2009).

Biological target: T1, hASIC2a/3 steady state (window) current (Homo sapiens, UniProt Q16515+Q9UHC3)
T1 construct: expressed in transfected cells; host or cells: Xenopus laevis oocytes, cRNA microinjection, 1:1 mass ratio
T1 sequence (Q16515 1-512): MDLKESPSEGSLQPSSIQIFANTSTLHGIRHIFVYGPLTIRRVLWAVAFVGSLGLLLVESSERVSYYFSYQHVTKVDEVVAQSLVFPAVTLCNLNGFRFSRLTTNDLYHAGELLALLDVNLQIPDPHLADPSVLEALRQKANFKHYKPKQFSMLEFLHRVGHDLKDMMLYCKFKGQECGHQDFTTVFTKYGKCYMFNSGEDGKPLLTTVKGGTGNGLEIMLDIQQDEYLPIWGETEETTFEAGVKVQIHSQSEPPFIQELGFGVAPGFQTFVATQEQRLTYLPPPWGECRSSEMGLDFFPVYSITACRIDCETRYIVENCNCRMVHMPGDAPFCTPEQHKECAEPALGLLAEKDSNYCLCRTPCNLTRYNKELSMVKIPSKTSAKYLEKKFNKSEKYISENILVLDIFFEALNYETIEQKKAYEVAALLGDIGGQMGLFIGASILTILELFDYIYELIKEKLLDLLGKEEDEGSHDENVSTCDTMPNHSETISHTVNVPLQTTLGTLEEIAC
T1 sequence (Q9UHC3 1-531): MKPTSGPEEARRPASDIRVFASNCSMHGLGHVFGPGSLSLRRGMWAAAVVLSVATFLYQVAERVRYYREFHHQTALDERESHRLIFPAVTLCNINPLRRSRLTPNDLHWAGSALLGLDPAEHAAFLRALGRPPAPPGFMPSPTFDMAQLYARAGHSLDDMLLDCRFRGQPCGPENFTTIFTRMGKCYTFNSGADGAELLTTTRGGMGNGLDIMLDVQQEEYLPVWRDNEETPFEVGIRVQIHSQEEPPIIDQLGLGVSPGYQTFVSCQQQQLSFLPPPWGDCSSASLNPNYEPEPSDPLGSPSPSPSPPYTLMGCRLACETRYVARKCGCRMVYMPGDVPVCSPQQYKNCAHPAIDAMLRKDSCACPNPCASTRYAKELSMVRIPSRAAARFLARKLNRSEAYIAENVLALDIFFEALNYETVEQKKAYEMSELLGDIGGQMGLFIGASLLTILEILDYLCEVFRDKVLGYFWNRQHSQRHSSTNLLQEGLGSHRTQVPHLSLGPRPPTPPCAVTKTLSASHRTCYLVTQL
Details: supramaximal concentration; Babinski et al. (2000); cited from earlier work

SMILES: [Gd+3] [gadolinium (Gd^3+)]
- block of the ASIC2A/3 steady state current: completely block
